Values quoted from earlier work in PMC9516332 (Frontiers in Oncology, 2022).
Like-named read-outs stand apart in the source and are kept apart here.

Key:
Settings in all cases: cited from earlier work
[1] = molecular target: T1, panel of 255 wild-type kinases (Homo sapiens, UniProt P43403)
T1 sequence (P43403 1-619): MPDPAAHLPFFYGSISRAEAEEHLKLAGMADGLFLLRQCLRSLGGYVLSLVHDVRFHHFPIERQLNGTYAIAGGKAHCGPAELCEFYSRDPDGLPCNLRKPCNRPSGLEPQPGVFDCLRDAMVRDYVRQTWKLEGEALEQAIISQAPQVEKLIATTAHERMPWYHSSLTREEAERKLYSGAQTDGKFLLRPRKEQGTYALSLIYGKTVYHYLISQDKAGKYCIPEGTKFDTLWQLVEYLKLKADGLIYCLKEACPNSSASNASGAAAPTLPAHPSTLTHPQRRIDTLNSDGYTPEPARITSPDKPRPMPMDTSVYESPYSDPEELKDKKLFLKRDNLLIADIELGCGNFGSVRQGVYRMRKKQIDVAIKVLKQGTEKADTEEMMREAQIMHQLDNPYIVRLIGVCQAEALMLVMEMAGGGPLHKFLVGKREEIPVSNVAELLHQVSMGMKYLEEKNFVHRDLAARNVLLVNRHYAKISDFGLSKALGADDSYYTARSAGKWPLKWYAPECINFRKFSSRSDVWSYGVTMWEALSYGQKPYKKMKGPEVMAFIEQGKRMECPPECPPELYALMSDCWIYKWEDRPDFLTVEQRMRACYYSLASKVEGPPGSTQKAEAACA

[2] = molecular target: T2, panel of 255 wild-type kinases (Homo sapiens, UniProt P29323)
T2 sequence (P29323 19-1055): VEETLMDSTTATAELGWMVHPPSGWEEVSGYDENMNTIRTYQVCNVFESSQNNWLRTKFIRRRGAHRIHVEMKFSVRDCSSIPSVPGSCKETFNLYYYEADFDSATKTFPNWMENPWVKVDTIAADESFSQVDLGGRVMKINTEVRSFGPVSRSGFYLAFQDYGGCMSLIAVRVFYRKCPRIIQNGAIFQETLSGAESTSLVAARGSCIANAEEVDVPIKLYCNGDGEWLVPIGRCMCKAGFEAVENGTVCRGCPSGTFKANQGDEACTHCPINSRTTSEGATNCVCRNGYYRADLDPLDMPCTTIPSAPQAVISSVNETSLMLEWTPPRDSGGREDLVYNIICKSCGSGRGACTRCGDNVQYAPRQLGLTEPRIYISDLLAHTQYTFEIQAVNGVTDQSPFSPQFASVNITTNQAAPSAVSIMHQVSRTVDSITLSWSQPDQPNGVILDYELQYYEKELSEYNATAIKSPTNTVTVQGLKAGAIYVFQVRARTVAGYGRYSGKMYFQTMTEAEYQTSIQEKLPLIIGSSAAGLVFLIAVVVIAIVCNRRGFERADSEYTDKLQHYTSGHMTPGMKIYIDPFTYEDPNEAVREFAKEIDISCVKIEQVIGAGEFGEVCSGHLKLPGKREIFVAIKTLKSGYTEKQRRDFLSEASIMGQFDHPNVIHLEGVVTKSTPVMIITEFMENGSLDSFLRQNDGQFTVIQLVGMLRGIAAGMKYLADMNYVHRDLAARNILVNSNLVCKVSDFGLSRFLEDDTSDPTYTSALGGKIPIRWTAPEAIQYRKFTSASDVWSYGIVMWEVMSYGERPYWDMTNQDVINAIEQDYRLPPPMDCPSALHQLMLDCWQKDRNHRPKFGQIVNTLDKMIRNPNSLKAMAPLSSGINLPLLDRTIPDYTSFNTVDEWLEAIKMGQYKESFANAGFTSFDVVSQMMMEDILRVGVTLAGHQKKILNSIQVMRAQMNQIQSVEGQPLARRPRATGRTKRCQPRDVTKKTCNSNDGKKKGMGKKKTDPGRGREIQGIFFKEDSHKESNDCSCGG

[3] = molecular target: T3, panel of 255 wild-type kinases (Homo sapiens, UniProt P51817)
T3 sequence (P51817 1-358): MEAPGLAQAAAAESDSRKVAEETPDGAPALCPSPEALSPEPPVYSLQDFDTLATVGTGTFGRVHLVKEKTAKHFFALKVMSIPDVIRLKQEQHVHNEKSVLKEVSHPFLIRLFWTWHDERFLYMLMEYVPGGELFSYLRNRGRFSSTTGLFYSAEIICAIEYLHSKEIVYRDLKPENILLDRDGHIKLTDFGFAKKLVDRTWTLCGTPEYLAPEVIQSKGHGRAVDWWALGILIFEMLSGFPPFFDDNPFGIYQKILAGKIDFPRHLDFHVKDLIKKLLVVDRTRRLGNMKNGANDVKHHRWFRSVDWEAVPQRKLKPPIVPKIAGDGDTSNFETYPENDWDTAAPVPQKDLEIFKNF

[4] = molecular target: T4, panel of 255 wild-type kinases (Homo sapiens, UniProt Q9NRA0)
T4 sequence (Q9NRA0 1-654): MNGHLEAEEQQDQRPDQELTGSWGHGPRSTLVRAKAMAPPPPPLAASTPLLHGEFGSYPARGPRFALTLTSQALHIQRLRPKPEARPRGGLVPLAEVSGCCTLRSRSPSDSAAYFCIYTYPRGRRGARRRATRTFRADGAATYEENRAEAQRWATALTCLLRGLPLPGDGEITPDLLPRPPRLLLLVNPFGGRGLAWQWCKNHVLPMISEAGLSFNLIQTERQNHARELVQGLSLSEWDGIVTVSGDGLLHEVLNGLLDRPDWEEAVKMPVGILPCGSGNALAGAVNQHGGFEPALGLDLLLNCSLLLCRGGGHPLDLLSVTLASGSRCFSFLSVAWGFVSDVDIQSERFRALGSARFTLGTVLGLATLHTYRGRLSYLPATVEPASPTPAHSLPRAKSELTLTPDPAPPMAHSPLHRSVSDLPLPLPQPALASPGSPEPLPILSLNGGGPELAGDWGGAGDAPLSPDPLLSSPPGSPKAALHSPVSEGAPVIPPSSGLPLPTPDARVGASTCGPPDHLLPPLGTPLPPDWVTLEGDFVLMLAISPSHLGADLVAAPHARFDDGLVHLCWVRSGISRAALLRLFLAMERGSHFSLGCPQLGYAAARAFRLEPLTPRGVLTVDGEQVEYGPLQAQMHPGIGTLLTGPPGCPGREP

[5] = kinase ZAP70, 1 µmol/L single concentration, ref DOI: 10.1158/1535-7163.MCT-18-0877
[6] = kinase EPHB2, 1 µmol/L single concentration, ref DOI: 10.1158/1535-7163.MCT-18-0877
[7] = kinase PRKX, 1 µmol/L single concentration, ref DOI: 10.1158/1535-7163.MCT-18-0877
[8] = kinase SPHK2, 1 µmol/L single concentration, ref DOI: 10.1158/1535-7163.MCT-18-0877
[9] = kinase ZAP70, 1 µmol/L single concentration, ref DOI: 10.1371/journal.pone.0092146
[10] = kinase EPHB2, 1 µmol/L single concentration, ref DOI: 10.1371/journal.pone.0092146
[11] = kinase PRKX, 1 µmol/L single concentration, ref DOI: 10.1371/journal.pone.0092146
[12] = kinase SPHK2, 1 µmol/L single concentration, ref DOI: 10.1371/journal.pone.0092146

Compound: O=C(c1ccc(F)c(F)c1Nc1ccc(I)cc1F)N1CC(O)([C@@H]2CCCCN2)C1 [cobimetinib]
- %-inhibition at 1 µmol/L, ZAP70 [1, 5]: -3%
- %-inhibition at 1 µmol/L, EPHB2 [2, 6]: 1.53%
- %-inhibition at 1 µmol/L, PRKX [3, 7]: 2.17%
- %-inhibition at 1 µmol/L, SPHK2 [4, 8]: 11%

Compound: CC(C)(C)c1nc(-c2cccc(NS(=O)(=O)c3c(F)cccc3F)c2F)c(-c2ccnc(N)n2)s1 [dabrafenib]
- %-inhibition at 1 µmol/L, ZAP70 [1, 9]: 3.47%
- %-inhibition at 1 µmol/L, EPHB2 [2, 10]: -3.38%
- %-inhibition at 1 µmol/L, PRKX [3, 11]: -1.55%
- %-inhibition at 1 µmol/L, SPHK2 [4, 12]: -14%

Compound: Cc1cc(Nc2ncc(Cl)c(Nc3ccccc3S(=O)(=O)C(C)C)n2)c(OC(C)C)cc1C1CCNCC1 [ceritinib]
- %-inhibition at 1 µmol/L, ZAP70 [1, 5]: 10%
- %-inhibition at 1 µmol/L, EPHB2 [2, 6]: 15%
- %-inhibition at 1 µmol/L, PRKX [3, 7]: 11%
- %-inhibition at 1 µmol/L, SPHK2 [4, 8]: 6.4%

Compound: CCc1cc2c(cc1N1CCC(N3CCOCC3)CC1)C(C)(C)c1[nH]c3cc(C#N)ccc3c1C2=O [alectinib]
- %-inhibition at 1 µmol/L, ZAP70 [1, 5]: 1.18%
- %-inhibition at 1 µmol/L, EPHB2 [2, 6]: 27%
- %-inhibition at 1 µmol/L, PRKX [3, 7]: 1.81%
- %-inhibition at 1 µmol/L, SPHK2 [4, 8]: 1.74%

Compound: CCCS(=O)(=O)Nc1ccc(F)c(C(=O)c2c[nH]c3ncc(-c4ccc(Cl)cc4)cc23)c1F [vemurafenib]
- %-inhibition at 1 µmol/L, ZAP70 [1, 9]: 6%
- %-inhibition at 1 µmol/L, EPHB2 [2, 10]: -2.11%
- %-inhibition at 1 µmol/L, PRKX [3, 11]: -3.45%
- %-inhibition at 1 µmol/L, SPHK2 [4, 12]: 8%

Compound: COc1cc(N2CCC(N3CCN(C)CC3)CC2)ccc1Nc1ncc(Cl)c(Nc2ccccc2P(C)(C)=O)n1 [brigatinib]
- %-inhibition at 1 µmol/L, ZAP70 [1]: 74%
- %-inhibition at 1 µmol/L, EPHB2 [2]: 10%
- %-inhibition at 1 µmol/L, PRKX [3]: 47%
- %-inhibition at 1 µmol/L, SPHK2 [4]: 11%

Compound: CC(=O)Nc1cccc(-n2c(=O)n(C3CC3)c(=O)c3c(Nc4ccc(I)cc4F)n(C)c(=O)c(C)c32)c1 [trametinib]
- %-inhibition at 1 µmol/L, ZAP70 [1, 9]: -3%
- %-inhibition at 1 µmol/L, EPHB2 [2, 10]: -8%
- %-inhibition at 1 µmol/L, PRKX [3, 11]: -1.19%
- %-inhibition at 1 µmol/L, SPHK2 [4, 12]: -14%

Compound: CC#CC(=O)N1CCC[C@H]1c1nc(-c2ccc(C(=O)Nc3ccccn3)cc2)c2c(N)nccn12 [acalabrutinib]
- %-inhibition at 1 µmol/L, ZAP70 [1, 5]: -1.53%
- %-inhibition at 1 µmol/L, EPHB2 [2, 6]: -0.111%
- %-inhibition at 1 µmol/L, PRKX [3, 7]: -4.59%
- %-inhibition at 1 µmol/L, SPHK2 [4, 8]: 7%

Compound: C=CC(=O)Nc1cc(Nc2nccc(-c3cn(C)c4ccccc34)n2)c(OC)cc1N(C)CCN(C)C [osimertinib]
- %-inhibition at 1 µmol/L, ZAP70 [1, 5]: 18%
- %-inhibition at 1 µmol/L, EPHB2 [2, 6]: 2.8%
- %-inhibition at 1 µmol/L, PRKX [3, 7]: 1.37%
- %-inhibition at 1 µmol/L, SPHK2 [4, 8]: 15%

Compound: CO[C@@H]1[C@H](N(C)C(=O)c2ccccc2)C[C@H]2O[C@]1(C)n1c3ccccc3c3c4c(c5c6ccccc6n2c5c31)C(=O)NC4 [midostaurin]
- %-inhibition at 1 µmol/L, ZAP70 [1, 5]: 94%
- %-inhibition at 1 µmol/L, EPHB2 [2, 6]: 4.5%
- %-inhibition at 1 µmol/L, PRKX [3, 7]: 97%
- %-inhibition at 1 µmol/L, SPHK2 [4, 8]: 12%

Compound: C=CC(=O)N1CCC[C@@H](n2nc(-c3ccc(Oc4ccccc4)cc3)c3c(N)ncnc32)C1 [ibrutinib]
- %-inhibition at 1 µmol/L, ZAP70 [1, 5]: -4.51%
- %-inhibition at 1 µmol/L, EPHB2 [2, 6]: 28%
- %-inhibition at 1 µmol/L, PRKX [3, 7]: 0.66%
- %-inhibition at 1 µmol/L, SPHK2 [4, 8]: 10%

Compound: C[C@@H](Oc1cc(-c2cnn(C3CCNCC3)c2)cnc1N)c1c(Cl)ccc(F)c1Cl [crizotinib]
- %-inhibition at 1 µmol/L, ZAP70 [1, 9]: 21%
- %-inhibition at 1 µmol/L, EPHB2 [2, 10]: 57%
- %-inhibition at 1 µmol/L, PRKX [3, 11]: -7%
- %-inhibition at 1 µmol/L, SPHK2 [4, 12]: 8%
